SMILES strings stand for the structures. Entries after “also recorded” stand apart in the source; their conditions may differ.

The conditions of data set [1]: 5 dpf zebrafish larvae, 1 h incubation with 15 µg/mL; cited from earlier work.
Data set [2] concerns 5-HT transporter proteins. Also on record: method as in earlier work. To be noted: 34 (Rothman et al.); read-out: EC50 values for release, 5-HT; cited from earlier work.
Data set [3] in a line: Compound concentration (uptake) in larval zebrafish heads by LC-MS. Format: in vivo, Danio rerio. The settings on record: immersion at MTC for 30 min, 4 h and 22 h, Fig. 4. As to the method: WT and homozygous zebrafish larvae (scn1Lab^−/− mutants) (6 dpf) were treated as described above. After incubation with compounds, larvae were washed and euthanized by exposure to cold Milli-Q water. Then, the heads of larvae were carefully separated under the microscope, and five heads were transferred collectively into one 1.5 mL Eppendorf tube with acid-washed glass beads (diameter: […], Sigma Aldrich) and 275 µL extraction medium (HPLC grade methanol, Sigma Aldrich). Next, the samples were homogenized by 10 min of ultrasonication (Diagenode Bioruptor Plus, Belgium) at 4 °C. The overall ultrasonication process encompassed 10 cycles of 30 s with pauses of 30 s in-between with high energy input. […]
Quantification was performed through the use of a calibration curve created for each compound separately in blank matrix, which was derived from a pooled set of blank fish heads (n = 40). […] Ranges consisted of at least 5 concentrations, each of which was analyzed in replicate (n = 5). […]
The mean head weight (± S.D.) of a 6 dpf and 7 dpf zebrafish larva was 192 ± 10 µg and 196 ± 13 µg, respectively, as measured by weighing three batches of 50 fresh heads after removing excess water with filter paper. The final uptake was calculated according to the method reported by Copmans et al., and expressed as amount/head weight (µg/g).

Another data set has as its target serotonin uptake. Also on record: method as in earlier work. The settings on record: 34 (Rothman et al.); read-out: Ki values for uptake inhibition, 5-HT; cited from earlier work.
Data set [4] relates to norepinephrine (NE) release. Also on record: method as in earlier work. To be noted: 34 (Rothman et al.); cited from earlier work.
The subject of the next data set is 5-HT2A. Details: method as in earlier work. To be noted: 34 (Rothman et al.); cited from earlier work.
Data set [5] concerns the target norepinephrine (NE) uptake. Also on record: method as in earlier work. The settings on record: 34 (Rothman et al.); read-out: Ki values for uptake inhibition, NE; cited from earlier work.
In data set [6] the test system is zebrafish scn1Lab−/− mutant model of DS. Nature of the data set: Overall antiepileptic activity in the zebrafish scn1Lab−/− mutant model (locomotor and LFP read-outs together). It is filed as in vivo, Danio rerio. The settings on record: 22 h incubation. As to the method:
(§1) WT and homozygous zebrafish larvae (scn1Lab^−/− mutants) (6 dpf) were individually positioned in single wells of a 96-well plate, and incubated in 100 μL VHC or VHC supplemented with compound or combined compounds for 22 h at 28 °C on a 14/10 h light/dark cycle. Then, the plates were placed immediately in an enclosed tracking device (ZebraBox Viewpoint, France), followed by a 30 min chamber habituation and 10 min recording. Locomotor activity over the total tracking period of 10 min was quantified by ZebraLab software (Software Viewpoint, France) using the lardist parameter (total distance in large movements) and 150 bkg (background) as a threshold, as reported previously by our group. For “small/large movement” and “inact/small movement”, a threshold was used of 6.4 and 3.3, respectively. Data were pooled from three or four independent experiments, with at least five larvae for each treatment and 20–30 larvae for each experimental condition, and expressed as “cm” per 100 s.
(§2) WT and homozygous zebrafish larvae (scn1Lab^−/− mutants) (6 dpf) were treated as described above. After incubation, larvae were immobilized in 2% low-melting-point agarose (Invitrogen) at room temperature (RT) and the epileptiform activities were measured by noninvasive local field potential (LFP) recording from the skin above the optic tectum (midbrain). The single glass electrode filled with artificial cerebrospinal fluid (ACSF) (124 mM NaCl, 2 mM KCl, 2 mM MgSO4, 2 mM CaCl2, 1.25 mM KH2PO4, 26 mM NaHCO3, and 10 mM glucose) was positioned on the skin above the optic tectum. Each recording lasted for 10 min. Epileptiform activity was quantified by using Clampfit 10.2 software (Molecular Devices Corporation, USA60), as reported previously by our group.

The test system of a further data set is 5-HT2B. Details: method as in earlier work. The settings on record: 34 (Rothman et al.); cited from earlier work.
Another data set deals with dopamine (DA) release. Details: method as in earlier work. To be noted: 34 (Rothman et al.); cited from earlier work.
In the next data set the test system is 5-HT2C. Details: method as in earlier work. To be noted: 34 (Rothman et al.); cited from earlier work.
The target in a further data set is dopamine (DA) uptake. Details: method as in earlier work. The settings on record: 34 (Rothman et al.); read-out: Ki values for uptake inhibition, DA; cited from earlier work.
Data set [7] deals with zebrafish scn1Lab−/− mutant larvae. Nature of the data set: Noninvasive local field potential (LFP) recordings from the optic tectum. It is filed as in vivo, Danio rerio. To be noted: 22 h. As to the method:
as §2

For data set [8] the test system is unchanged. Nature of the data set: Locomotor activity measurement (behavioral assay) in the zebrafish DS model. It is filed as in vivo, Danio rerio. To be noted: single treatment at MTC, 22 h, Fig. 2A. As to the method:
as §1

Data set [9] deals with DS zebrafish mutant model. Also on record: method as in PMID 29335539. The settings on record: cited from earlier work.
In a further data set the test system is WT zebrafish larvae. Kind of data set: Toxicity evaluation: maximum tolerated concentration (MTC). Format: in vivo, Danio rerio. To be noted: WT larvae 6 dpf, 22 h incubation. As to the method:
To evaluate the maximum tolerated concentration (MTC) of the individual compounds, a dozen of WT zebrafish larvae (6 dpf) were individually incubated in single wells of a 96-well plate, and treated with two-fold serial dilutions of the compounds. After 22 h incubation under standard conditions (28 °C, 14/10 light/dark cycle), larvae were individually examined for their touch response, posture, edema, signs of necrosis, morphology, heartbeat rate, and swim bladder condition under the microscope.

Take `O=C(CCCN1CCC(O)(c2ccc(Cl)cc2)CC1)c1ccc(F)cc1` [haloperidol]: the “head uptake (recovered concentration)” value in [1] was 21.6 µg/g.

Usually EC50 stands for the concentration at which the effect is half-maximal. The Ki is a measure of affinity in units of concentration, obtained from inhibition or displacement. For the compound `C[C@H](N)Cc1cccc(C(F)(F)F)c1` [(+)-norFFA], the concentration for a half-maximal effect (EC50) in data set [2] is 0.0593 ± 0.0024 µM; in [4] it was 0.0727 ± 0.0054 µM; in the data set with dopamine (DA) release it was 0.924 ± 0.112 µM. Further, the “total uptake in larval heads (amount of compound/head weight)” value in data set [3] was “somewhat similar uptake; also recorded: taken up less than the parent compound”. In addition, the Ki at serotonin uptake was 0.214 ± 0.009 µM; in data set [5], 0.205 ± 0.019 µM; on dopamine (DA) uptake, 2.31 ± 0.087 µM. For the same compound, the “Kact values for 5-HT2 receptor subtypes, 5-HT2A” value with 5-HT2A was 630 ± 141 nM. The “antiepileptic activity in the model (overall)” value in data set [6] was “more consistent and concentration-dependent; also recorded: significant antiepileptic effects”. Besides, the “Kact values for 5-HT2 receptor subtypes, 5-HT2B” value in the data set with 5-HT2B was 18.4 ± 5.3 nM. Further, the “Kact values for 5-HT2 receptor subtypes, 5-HT2C” value in the data set with 5-HT2C is 13 ± 2.4 nM.

Turning to `C[C@@H](N)Cc1cccc(C(F)(F)F)c1` [(−)-norFFA], the figures for the 50% effective concentration (EC50) (in [2]; in [4]; with dopamine (DA) release) were 0.287 ± 0.014 µM, 0.474 ± 0.04 µM and over 10 µM, respectively. The “total uptake in larval heads (amount of compound/head weight)” value in data set [3] is reported as “somewhat similar uptake”. In [7] (at least at MTC, Fig. 7), the “effect on frequency and cumulative duration of the epileptiform events” value was “all compounds except for (−)-norFFA significantly reduced”. Also, the figures for the Ki (on serotonin uptake; in [5]; on dopamine (DA) uptake) were 1.18 ± 0.089 µM, 2.05 ± 0.297 µM and 19.2 µM, respectively. Moreover, in the data set with 5-HT2A, the “Kact values for 5-HT2 receptor subtypes, 5-HT2A” value is on record as 1565 ± 190 nM. Further, the “antiepileptic activity in the model (overall)” value in data set [6] is reported as “less conclusive”. For the same compound, the “Kact values for 5-HT2 receptor subtypes, 5-HT2B” value in the data set with 5-HT2B is 357 ± 105 nM. Also, in the data set with 5-HT2C, the “Kact values for 5-HT2 receptor subtypes, 5-HT2C” value was 18 ± 3.5 nM.

Take `CN1C(=O)CC(=O)N(c2ccccc2)c2cc(Cl)ccc21` [CLB, clobazam]: the “effect on epileptiform (hyper-)locomotor activity” value in data set [8] is recorded as “failed to rescue”. For the same compound, the “efficacy in the DS zebrafish mutant model” value in data set [9] is given as “ineffective”. In data set [7] (single treatment at MTC), the “effect on epileptiform brain discharges” value is “failed to rescue”. Further, the “maximum tolerated concentration (MTC)” value in the data set with WT zebrafish larvae was 100 µM.

The values are drawn from paper PMC8302504, “Efficacy of Fenfluramine and Norfenfluramine Enantiomers and Various Antiepileptic Drugs in a Zebrafish Model of Dravet Syndrome” (Neurochemical Research, 2021).
